Experimental data as given in patent US12484579B2, “Agrochemical composition and methods of preparing and using the same” (priority 2018, dated 2025).

Test: Solubility of Mesotrione in solvents
Assay type: physicochemical
Description: Mesotrione has been introduced in both Rhodiasolv® Li-Tec 2v and Rhodiasolv® Polarclean. Mesotrione is not soluble in Rhodiasolv® Li-Tec 2v and is soluble in (for instance at concentration of 30 g/L) Rhodiasolv® Polarclean.

## CS(=O)(=O)c1ccc(C(=O)C2C(=O)CCCC2=O)c([N+](=O)[O-])c1 [Mesotrione, 2-(4-methylsulfonyl-2-nitrobenzoyl)-cyclohexane-1,3-dione]
Solvent Rhodiasolv® Li-Tec 2v
  Solubility in Rhodiasolv® Li-Tec 2v: not soluble
Solvent Rhodiasolv® Polarclean, for instance at concentration of 30 g/L
  Solubility in Rhodiasolv® Polarclean: soluble
